Earlier results, collected in patent US20040242457A1, “Use of anti-glaucoma drugs to treat visual defects associated with the use of a GABAergic agent” (priority 2003, published 2004).

Details: reports from the literature

patients treated with GVG who develop visual field defects (VFDs): 25-50%
SMILES: C=CC(N)CCC(=O)O (racemic) [GVG, 4-amino-hex-5-enoic acid]
